“Also recorded” adds a separate entry of the source.
What was measured:
Balb c mice = tested on: Balb c mice
Description: Balb c mice were injected intravenously with 200 nmol/mouse of the free 1v270 compound, the Cationic PEG 1v270 Lip formulation and the Cationic 1v270 Lip formulation. […] The AUC values calculated for each cytokine were used to determine I) the Toxicity Prediction with the IL-6/IFNα and IL-6/IL-12p70 ratios, and J) the immunogenicity score by the IFNα/IL-10 and IL-12p70/IL-10 ratios shown in arbitrary units. (n=5 mice/group, Students T-test was used, *p<0.05, **p<0.01, *** p<0.005, ns=non significant, error bars show SE).

[1] = tested on: whole blood from healthy human donors; assay: Cytokine secretion in ex vivo human whole blood (ELISA, 24 h); type: cell-based; conditions: 24 h incubation
Description: Induction of cytokines from whole blood after treatment and incubation for 24 h. For all figures statistical analyses was made using students T-test, *p<0.05, **p<0.01, ***p<0.005, n=8-10. Test samples were the free TLR7 agonist 1v270 (1v270), the PEGylated cationic formulation with the immune stimulating 1v270 TLR7 agonist (Cationic PEG 1v270 Lip), a non-targeting neutral PEGylated liposome with 1v270 TLR7 agonist (Neutral PEG 1v270 Lip) and a non-PEGylated cationic formulation with 1v270 (Cationic 1v270 Lip). Composition and properties can be seen in Table 1. RPMI is control sample only with addition of media and DMSO is a vehicle control as solvent for 1v270.
For targeting a liposome to monocytes and antigen presenting cells (APCs) for use in cancer immunotherapy, it is key to boost an appropriate immune response. To analyze this we examined the ability of TLR7 agonist containing liposomes to induce cytokine secretion after targeting as shown in FIG. 2 and example 4, after another 24 h incubation. […]
To determine the optimal content of 1v270 in cationic PEGylated liposomes, liposomes were prepared with 0, 1, 2.5, 5 and 7.5% 1v270 content. […] The liposomes were incubated as described in example 5 and cytokine secretion of anti-tumor cytokines IL-12p70 and IFNα was measured.

`CCCCCCCC/C=C\CCCCCCCC(=O)OCC(COP(=O)(O)OCCNC(=O)c1ccc(Cn2c(=O)[nH]c3c(N)nc(OCCOC)nc32)cc1)OC(=O)CCCCCCC/C=C\CCCCCCCC` (stereo not shown) [1v270, 2-(4-((6-amino-2-(2-methoxyethoxy)-8-oxo-7H-purin-9(8H)-yl)methyl)benzamido)ethyl 2,3-bis(oleoyloxy)propyl phosphate] was tested, and the “higher toxicity prediction than the cationic PEG 1v270 Lip” value (Balb c mice; AUC ratios, FIG. 4I, ratio not given) was 8 fold, the “induction of IFNα in mouse plasma” value (Balb c mice; iv, 200 nmol/mouse, 2, 6 and 24 h) was “unable to induce IFNα at all; also recorded: no IFNα was measured” and the “secretion of IL-6” value ([1]; FIG. 3C) was “highest; also recorded: most potent”. The “secretion of IL-10” value ([1]; FIG. 3D) was “significantly higher levels”.

Reference: US20200163880A1, “CATIONIC LIPOSOMES” (DANMARKS TEKNISKE UNIVERSITET, priority 2017, published 2020)
